Experimental data taken from publication PMC6001238, “Iterative Chemical Engineering of Vancomycin Leads to Novel Vancomycin Analogs With a High in Vitro Therapeutic Index” (Frontiers in Microbiology, 2018).
In brackets after ≈: the same amount, converted by molar mass.

Legend:
E. faecalis VSE 1 = assay: MIC, broth microdilution, vancomycin-sensitive E. faecalis (VSE 1); assay type: cell-based, Enterococcus faecalis; conditions: for MIC: Enterococcus faecalis VSE 1 (vancomycin-sensitive), read-out: MIC; for MIC-fold improvement vs. vancomycin: VSE 1, ratio of MIC of vancomycin and MIC of analogue
In short: (§1)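 MIC values come from broth microdilution run to CLSI susceptibility-testing standards. Ultrapure water and uninoculated broth served as controls. In one series, vancomycin at a final 10 μM was co-dosed with the analogue or comparator antibiotic.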

E. faecalis VRE 6 = assay: MIC, broth microdilution, vancomycin-resistant E. faecalis VRE 6 (VanA); assay type: cell-based, Enterococcus faecalis; conditions: for MIC: Enterococcus faecalis VRE 6 (vancomycin-resistant), read-out: MIC; for MIC-fold improvement vs. vancomycin: VRE 6, ratio of MIC of vancomycin and MIC of analogue
In short: as §1

E. faecalis VRE 53 = assay: MIC, broth microdilution, vancomycin-resistant E. faecalis VRE 53 (VanA); assay type: cell-based, Enterococcus faecalis; conditions: for MIC: Enterococcus faecalis VRE 53 (vancomycin-resistant), read-out: MIC; for MIC-fold improvement vs. vancomycin: VRE 53, ratio of MIC of vancomycin and MIC of analogue
In short: as §1

E. faecalis VRE 29 = assay: MIC, broth microdilution, vancomycin-resistant E. faecalis VRE 29 (VanA); assay type: cell-based, Enterococcus faecalis; conditions: for MIC: Enterococcus faecalis VRE 29 (vancomycin-resistant), read-out: MIC; for MIC-fold improvement vs. vancomycin: VRE 29, ratio of MIC of vancomycin and MIC of analogue
In short: as §1

E. faecalis VRE 37 = assay: MIC, broth microdilution, vancomycin-resistant E. faecalis VRE 37 (VanA); assay type: cell-based, Enterococcus faecalis; conditions: for MIC: Enterococcus faecalis VRE 37 (vancomycin-resistant), read-out: MIC; for MIC-fold improvement vs. vancomycin: VRE 37, ratio of MIC of vancomycin and MIC of analogue
In short: as §1

[1] = test system: Murine leukemia (L1210) cells; assay: Cytostatic activity, L1210 cell proliferation; assay type: cell-based; conditions: mean ± SD of three experiments; highest concentration tested 250 µM; 2 days; read-out: Toxicity (IC50) L1210
In short: (§2)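 Coulter counter cell counts after 37°C culture with compound; IC50 = concentration giving 50% growth inhibition vs negative control. Incubation: L1210 2 d, CEM 3 d, HeLa 4 d. Suspension density before mixing with an equal volume of dilution: 300,000–500,000 cells/mL.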

[2] = test system: human T-lymphocyte (CEM) cells; assay: Cytostatic activity, CEM cell proliferation; assay type: cell-based; conditions: mean ± SD of three experiments; highest concentration tested 250 µM; 3 days; read-out: Toxicity (IC50) CEM
In short: as §2

[3] = test system: human cervix carcinoma (HeLa) cells; assay: Cytostatic activity, HeLa cell proliferation; assay type: cell-based; conditions: mean ± SD of three experiments; highest concentration tested 250 µM; 4 days; read-out: Toxicity (IC50) HeLa
In short: as §2

[4] = test system: L1210, CEM and HeLa cell lines; assay: Cytostatic activity, average or summary over L1210, CEM and HeLa; assay type: cell-based; conditions: average of L1210, CEM and HeLa; read-out: Toxicity (IC50) Average
In short: as §2

[5] = test system: S. aureus VSSA (ATCC 6538); assay: MIC, broth microdilution, vancomycin-sensitive S. aureus (VSSA/MSSA, ATCC 6538); assay type: cell-based, Staphylococcus aureus; conditions: for MIC: Staphylococcus aureus VSSA, read-out: MIC; for MIC-fold improvement vs. vancomycin: VSSA, ratio of MIC of vancomycin and MIC of analogue
In short: as §1

S. aureus VISA/HIP5827 = assay: MIC, broth microdilution, vancomycin-intermediate S. aureus VISA HIP5827; assay type: cell-based, Staphylococcus aureus; conditions: for MIC: Staphylococcus aureus VISA/HIP5827, read-out: MIC; for MIC-fold improvement vs. vancomycin: VISA/HIP5827, ratio of MIC of vancomycin and MIC of analogue
In short: as §1

S. aureus VRSA = assay: MIC, broth microdilution, vancomycin-resistant S. aureus (VRSA); assay type: cell-based, Staphylococcus aureus; conditions: for MIC: Staphylococcus aureus VRSA, read-out: MIC; for MIC-fold improvement vs. vancomycin: VRSA, ratio of MIC of vancomycin and MIC of analogue
In short: as §1

MRSA KS2 = assay: MIC, broth microdilution, MRSA KS2; assay type: cell-based, Staphylococcus aureus; conditions: for MIC-fold improvement vs. vancomycin: MRSA KS2, ratio of MIC of vancomycin and MIC of analogue; for MIC: Staphylococcus aureus MRSA KS2, read-out: MIC
In short: as §1

MRSA KS6 = assay: MIC, broth microdilution, MRSA KS6; assay type: cell-based, Staphylococcus aureus; conditions: for MIC-fold improvement vs. vancomycin: MRSA KS6, ratio of MIC of vancomycin and MIC of analogue; for MIC: Staphylococcus aureus MRSA KS6, read-out: MIC
In short: as §1

MRSA KS89 = assay: MIC, broth microdilution, MRSA KS89; assay type: cell-based, Staphylococcus aureus; conditions: for MIC-fold improvement vs. vancomycin: MRSA KS8, ratio of MIC of vancomycin and MIC of analogue; for MIC: Staphylococcus aureus MRSA KS8, read-out: MIC
In short: as §1

MRSA KS1 = assay: MIC, broth microdilution, MRSA KS1; assay type: cell-based, Staphylococcus aureus; conditions: for MIC-fold improvement vs. vancomycin: MRSA KS1, ratio of MIC of vancomycin and MIC of analogue; for MIC: Staphylococcus aureus MRSA KS1, read-out: MIC
In short: as §1

| SMILES | MIC (E. faecalis VSE 1) | MIC-fold improvement vs. vancomycin (E. faecalis VSE 1) | MIC (E. faecalis VRE 6) | MIC-fold improvement vs. vancomycin (E. faecalis VRE 6) | MIC (E. faecalis VRE 53) | MIC-fold improvement vs. vancomycin (E. faecalis VRE 53) | MIC (E. faecalis VRE 29) | MIC-fold improvement vs. vancomycin (E. faecalis VRE 29) | MIC (E. faecalis VRE 37) | IC50 [1] | IC50 [2] | IC50 [3] | IC50 [4] | MIC [5] | MIC-fold improvement vs. vancomycin [5] | MIC (S. aureus VISA/HIP5827) | MIC-fold improvement vs. vancomycin (S. aureus VISA/HIP5827) | MIC (S. aureus VRSA) | MIC-fold improvement vs. vancomycin (S. aureus VRSA) | MIC-fold improvement vs. vancomycin (MRSA KS2) | also measured |
| --- | --- | --- | --- | --- | --- | --- | --- | --- | --- | --- | --- | --- | --- | --- | --- | --- | --- | --- | --- | --- | --- |
| CN[C@H](CC(C)C)C(=O)N[C@H]1C(=O)N[C@@H](CC(N)=O)C(=O)N[C@H]2C(=O)N[C@H]3C(=O)N[C@H](C(=O)N[C@H](C(=O)NCCNC(=O)/C=C/c4ccc(NS(=O)(=O)c5ccc(C(C)C)cc5)cc4)c4cc(O)cc(O)c4-c4cc3ccc4O)[C@H](O)c3ccc(c(Cl)c3)Oc3cc2cc(c3O[C@@H]2O[C@H](CO)[C@@H](O)[C@H](O)[C@H]2O[C@H]2C[C@](C)(N)[C@H](O)[C@H](C)O2)Oc2ccc(cc2Cl)[C@H]1O [Vanc-56] | 0.39 µM (≈ 0.709 µg/mL) | 4 | 3.13 µM (≈ 5.69 µg/mL) | 64 | 6.25 µM (≈ 11.4 µg/mL) | 64 | 6.25 µM (≈ 11.4 µg/mL) | 64 | 6.25 µM (≈ 11.4 µg/mL) | > 250 µM | ≥ 250 µM | 104 ± 17 µM | 201 µM | 0.39 µM (≈ 0.709 µg/mL) | 2 | 0.78 µM (≈ 1.42 µg/mL) | 8 | 0.39 µM (≈ 0.709 µg/mL) | 256 | 4 | MIC-fold improvement vs. vancomycin (E. faecalis VRE 37): 64; MIC (MRSA KS2): 0.20 µM (≈ 0.364 µg/mL); MIC-fold improvement vs. vancomycin (MRSA KS6): 4; MIC (MRSA KS6): 0.20 µM (≈ 0.364 µg/mL); MIC-fold improvement vs. vancomycin (MRSA KS89): 2; MIC (MRSA KS89): 0.39 µM (≈ 0.709 µg/mL); MIC-fold improvement vs. vancomycin (MRSA KS1): 1; MIC (MRSA KS1): 0.78 µM (≈ 1.42 µg/mL) |
| CNC(CC(C)C)C(=O)NC1C(=O)NC(CC(N)=O)C(=O)NC2C(=O)NC3C(=O)NC(C(=O)NC(C(=O)NCC(=O)Nc4ccc(-c5ccc(OC)cc5)cc4)c4cc(O)cc(O)c4-c4cc3ccc4O)C(O)c3ccc(c(Cl)c3)Oc3cc2cc(c3OC2OC(CO)C(O)C(O)C2OC2CC(C)(N)C(O)C(C)O2)Oc2ccc(cc2Cl)C1O (centres unmarked) [Vanc-57] | ≤0.05 µM | ≥32 | 1.56 µM (≈ 2.63 µg/mL) | 128 | 12.5 µM (≈ 21.1 µg/mL) | 32 | 3.13 µM (≈ 5.28 µg/mL) | 128 | 1.56 µM (≈ 2.63 µg/mL) | 6.3 ± 0.2 µM | 3.7 ± 0.2 µM | 41 ± 12 µM | 17 µM | 0.20 µM (≈ 0.338 µg/mL) | 4 | 0.39 µM (≈ 0.658 µg/mL) | 16 | 1.56 µM (≈ 2.63 µg/mL) | 64 | 4 | MIC-fold improvement vs. vancomycin (E. faecalis VRE 37): 256; MIC (MRSA KS2): 0.20 µM (≈ 0.338 µg/mL); MIC-fold improvement vs. vancomycin (MRSA KS6): 0.5; MIC (MRSA KS6): 1.56 µM (≈ 2.63 µg/mL); MIC-fold improvement vs. vancomycin (MRSA KS89): 2; MIC (MRSA KS89): 0.39 µM (≈ 0.658 µg/mL); MIC-fold improvement vs. vancomycin (MRSA KS1): 8; MIC (MRSA KS1): 0.10 µM (≈ 0.169 µg/mL) |
| CNC(CC(C)C)C(=O)NC1C(=O)NC(CC(N)=O)C(=O)NC2C(=O)NC3C(=O)NC(C(=O)NC(C(=O)NCC(=O)Nc4ccc(C=Cc5ccc(N)cc5)cc4)c4cc(O)cc(O)c4-c4cc3ccc4O)C(O)c3ccc(c(Cl)c3)Oc3cc2cc(c3OC2OC(CO)C(O)C(O)C2OC2CC(C)(N)C(O)C(C)O2)Oc2ccc(cc2Cl)C1O (centres unmarked) [Vanc-58] | 0.78 µM (≈ 1.32 µg/mL) | 2 | 6.25 µM (≈ 10.6 µg/mL) | 32 | 25 µM (≈ 42.5 µg/mL) | 16 | 12.5 µM (≈ 21.2 µg/mL) | 32 | 12.5 µM (≈ 21.2 µg/mL) | > 250 µM | 197 ± 75 µM | 125 ± 57 µM | 191 µM | 0.78 µM (≈ 1.32 µg/mL) | 1 | 1.56 µM (≈ 2.65 µg/mL) | 4 | 0.78 µM (≈ 1.32 µg/mL) | 128 | 1 | MIC (MRSA KS2): 0.78 µM (≈ 1.32 µg/mL); MIC-fold improvement vs. vancomycin (MRSA KS6): 1; MIC (MRSA KS6): 0.78 µM (≈ 1.32 µg/mL); MIC-fold improvement vs. vancomycin (MRSA KS89): 1; MIC (MRSA KS89): 0.78 µM (≈ 1.32 µg/mL); MIC-fold improvement vs. vancomycin (MRSA KS1): 0.5; MIC (MRSA KS1): 1.56 µM (≈ 2.65 µg/mL) |
